According to US9605026B2, “Hydrogen-bond surrogate peptides and peptidomimetics for p53 reactivation” (New York University, priority 2013, dated 2017):

Tests used:
[1] = system: p53; assay: Western blot of total and acetylated[K382] p53 in UMSCC47 cells; type: cell-based, human; conditions: 24 hours; for acetylated p53 levels / p53 accumulation (total p53 level): UMSCC47, 10 μM
Description: (§1) FIG. 5A is an schematic illustration showing that CH1 has two distinct target sites. HIF1-α/p300 structures were used as guides to design helix mimetics that target site A and site B on the CH1 domain of p300. […] CH1iA (SEQ ID NO: 7) and CH1iB (SEQ ID NO: 8) were designed to mimic two helices from the C-terminal domain of HIF-1α. The peptides were locked into the helical conformation by the hydrogen bond surrogate method. FIG. 5C is a graph of p53 activity. UMSCC47 (left) and UMSCC74A (right) cells were co-transfected with a p53 Firefly luciferase reporter plasmid and a control Renilla luciferase plasmid. After 24 hours, cells were treated with control (vehicle), CH1iA (10 μM), or CH1iB (10 μM) for 24 hours. Firefly luciferase activity was normalized to Renilla luciferase activity to control for transfection efficiency. Data is normalized to control and presented as mean±SEM. *P<0.05, n=3. FIG. 5D is a western blot showing total and acetylated p53 levels. UMSCC47 (left) and UMSCC74A (right) cells were treated with control (vehicle), CH1iA (10 μM), or CH1iB (10 μM) for 24 hours. Cell lysates were immunoblotted with anti-p53 or anti-acetylated[K382]-p53 antibody. FIG. 5E is a pair of graphs of p300, p53, p21, miR-34a, and miR-200c expression. UMSCC47 (top panel) and UMSCC74A (bottom panel) cells were treated with control (vehicle), CH1iA (10 μM), or CH1iB (10 μM) for 24 hours. mRNA expression was determined using qPCR with validated TaqMan assays. Data is normalized to control cells and presented as mean±SEM. *P<0.01, control vs. CH1iB, n=3. FIG. 5F is a western blot showing HPV16 E6-p300 association. UMSCC47 cells were treated with control (vehicle), CH1iA (10 μM), or CH1iB (10 μM) for 24 hours. Cell lysates were extracted, immunoprecipitated with anti-p300 antibody, and immunoblotted with anti-E6 antibody. Cell lysates were immunoblotted with anti-E6 or anti-p300 antibody for input control. FIG. 5G is a set of graphs of cell proliferation. UMSCC47 (top left panel), UMSCC74A (top right panel), and IMR90 (human normal fibroblasts) (bottom panel) cells were treated with control (vehicle), CH1iA (10 μM), CH1iB (10 μM), cis-platinum (10 μM), CH1iA (10 μM) and cis-platinum (10 μM), or CH1iB (10 μM) and cis-platinum (10 μM) for 24, 48, or 72 hours. Data is normalized to Day 0 and presented as mean±SEM. *P<0.01, control vs. CH1iB or cis-platinum, **P<0.01 CH1iB or cis-platinum vs. CH1iB and cis-platinum, n=6.
FIG. 6A is a western blot showing total and acetylated p53 levels. UMSCC47 cells were treated with control (vehicle), CH1iB (10 μM), cis-platinum (10 μM), or CH1iB (10 μM) and cis-platinum (10 μM) for 24 hours. Cell lysates were immunoblotted with anti-p53 or anti-acetylated[K382]-p53 antibody. FIG. 6B is a graph of p53 transcriptional activity. UMSCC47 cells were co-transfected with a p53 Firefly luciferase reporter plasmid and a control Renilla luciferase plasmid. After 24 hours, cells were treated with control (vehicle), CH1iB (10 μM), cis-platinum (10 μM), or CH1iB (10 μM) and cis-platinum (10 μM) for 24 hours. Firefly luciferase activity was normalized to Renilla luciferase activity to control for transfection efficiency. Data is normalized to control and presented as mean±SEM. *P<0.01, control vs. CH1iB, cis-platinum or CH1iB+cis-platinum, **P<0.01 CH1iB or cis-platinum vs. CH1iB+cis-platinum, n=5. FIG. 6C is a graph of p300, p53, p21, miR-34a, and miR-200c expression. UMSCC47 cells were treated with control (vehicle), CH1iB (10 μM), cis-platinum (10 μM), or CH1iB (10 μM) and cis-platinum (10 μM) for 24 hours. mRNA expression was determined using qPCR with validated TaqMan assays. Data is normalized to control cells and presented as mean±SEM. *P<0.01, control vs. CH1iB, cis-platinum or CH1iB+cis-platinum, **P<0.01 CH1iB or cis-platinum vs. CH1iB+cis-platinum, n=3. FIG. 6D is a pair of graphs of apoptosis. […]

[2] = system: p53; assay: Western blot of total and acetylated[K382] p53 in UMSCC74A cells; type: cell-based, human; conditions: UMSCC74A (HPV-negative, p53 wildtype), 10 μM, 24 hours
Description: (§2) FIG. 5A is an schematic illustration showing that CH1 has two distinct target sites. HIF1-α/p300 structures were used as guides to design helix mimetics that target site A and site B on the CH1 domain of p300. […] CH1iA (SEQ ID NO: 7) and CH1iB (SEQ ID NO: 8) were designed to mimic two helices from the C-terminal domain of HIF-1α. The peptides were locked into the helical conformation by the hydrogen bond surrogate method. FIG. 5C is a graph of p53 activity. UMSCC47 (left) and UMSCC74A (right) cells were co-transfected with a p53 Firefly luciferase reporter plasmid and a control Renilla luciferase plasmid. After 24 hours, cells were treated with control (vehicle), CH1iA (10 μM), or CH1iB (10 μM) for 24 hours. Firefly luciferase activity was normalized to Renilla luciferase activity to control for transfection efficiency. Data is normalized to control and presented as mean±SEM. *P<0.05, n=3. FIG. 5D is a western blot showing total and acetylated p53 levels. UMSCC47 (left) and UMSCC74A (right) cells were treated with control (vehicle), CH1iA (10 μM), or CH1iB (10 μM) for 24 hours. Cell lysates were immunoblotted with anti-p53 or anti-acetylated[K382]-p53 antibody. […] UMSCC47 (top panel) and UMSCC74A (bottom panel) cells were treated with control (vehicle), CH1iA (10 μM), or CH1iB (10 μM) for 24 hours. mRNA expression was determined using qPCR with validated TaqMan assays. […]

[3] = system: p300, p53, and p53-regulated genes; assay: qPCR expression of p300, p53, p21, miR-34a, miR-200c in UMSCC74A cells; type: cell-based, human; conditions: 10 μM, 24 hours
Description: as §2, with “hours.” for “hours. Firefly luciferase activity was normalized to Renilla luciferase activity to control for transfection efficiency. Data is normalized to control and presented as mean±SEM. *P<0.05, n=3. FIG. 5D is a western blot showing total and acetylated p53 levels. UMSCC47 (left) and UMSCC74A (right) cells were treated with control (vehicle), CH1iA (10 μM), or CH1iB (10 μM) for 24 hours. Cell lysates were immunoblotted with anti-p53 or anti-acetylated[K382]-p53 antibody.”
Cells were extracted for total RNA using the TRIzol® reagent (Invitrogen) or TaqMan PreAmp Cells-to-CT kit (Applied Biosystems). Expression of p300, p53, p21, miR-34a and miR-200c were determined using the Applied Biosystems 7900HT Fast Real-Time PCR System with validated TaqMan gene expression assays (Applied Biosystems). p53, p300, and p21 expression were normalized to GADPH and miR-34a and miR-200c expression were normalized to RNU44 using the ΔΔCt method.

[4] = system: UMSCC74A cells; assay: Cell proliferation (MTT) in UMSCC74A cells; type: cell-based, human; conditions: for cell proliferation, single-agent: UMSCC74A (HPV-negative), 10 μM; for effect on efficacy of cis-platinum on proliferation: UMSCC74A, 10 μM with cis-platinum 10 μM
Description: as §1, with “Data is normalized to Day 0 and presented as mean±SEM. *P<0.01, control vs. CH1iB or cis-platinum, **P<0.01 CH1iB or cis-platinum vs. CH1iB and cis-platinum, n=6.” left out
(§3) Cell proliferation was assessed using the MTT reagent (Roche Molecular Biochemicals, Nutley, N.J.) to detect metabolic active cells. Absorbance was measured at 570 nm in the Spectra Max 190 ELISA reader (Molecular Devices, Sunnyvale, Calif.) after overnight incubation. […] Apoptotic cells were analyzed using BD FACS Calibur (BD Biosciences Corporation, Franklin Lakes, N.J.) at The Ohio State University Comprehensive Cancer Center Analytical Cytometry Core.

[5] = system: human normal IMR90 fibroblasts; assay: Cell proliferation (MTT) in IMR90 fibroblasts; type: cell-based; conditions: for effect on efficacy of cis-platinum on proliferation: IMR90, 10 μM with cis-platinum 10 μM; for cell proliferation, single-agent: IMR90 human normal fibroblasts, 10 μM
Description: as §1, with “Data is normalized to Day 0 and presented as mean±SEM. *P<0.01, control vs. CH1iB or cis-platinum, **P<0.01 CH1iB or cis-platinum vs. CH1iB and cis-platinum, n=6.” left out
as §3

[6] = UMSCC47, CH1iB 10 μM with cis-platinum 10 μM

Substance	acetylated p53 levels [1]	p53 accumulation (total p53 level) [1]	effect of cis-platinum on p53 accumulation [1, 6]	effect of cis-platinum on p53 acetylation [1, 6]	p53 levels [2]	Expression of p300, p53, and p53-regulated genes [3]	cell proliferation, single-agent [4]	effect on efficacy of cis-platinum on proliferation [4]	effect on efficacy of cis-platinum on proliferation [5]	cell proliferation, single-agent [5]
XELA*RALDQ-NH2 (ELXRALDQ; HBS: 4-pentenoic acid, N-allylalanine; C-terminal amide; CH1iB) [X 4-pentenoic acid, A* N-allylalanine]	enhanced	enhanced	potentiated	potentiated	did not modulate	unchanged	no effect	did not augment	did not augment	no effect
XTAA*DCEYNAR (TAXDCEYNAR; HBS: 4-pentenoic acid, N-allylalanine; CH1iA) [X 4-pentenoic acid, A* N-allylalanine, reference compound]	no effect	no effect			did not modulate	unchanged	no effect	did not augment	did not augment	no effect
